Where two headings read alike, the source gives them in different places.
Tests used:
[1] = test system: RAD54 promoter-GFP reporter (pGen001); settings: for GSA genotoxicity result: GenT01 yeast, overnight at 25° C., 2% DMSO diluent, no S9
[2] = test system: yeast strain GenT01 (FF18984); experiment: GreenScreen assay (GSA), cytotoxicity: final cell density by absorbance; settings: for Maximum Concentration (% v/v), suggested maximum tolerable solvent concentration: solvent in GSA test samples, toxic at higher concentrations
Description: The following standard protocol was followed. A 1 mM stock of the test chemical was prepared in 2% v/v aqueous DMSO, and used to make 2 identical dilution series across the microplate and a ‘control’ (see below). To achieve this, 150 microlitres of the test chemical solution were put into 2 microplate wells. Each sample was serially diluted by transferring 75 microlitres into 75 microlitres of 2% DMSO, mixing, and then taking 75 microlitres out and into the next well. This produced 9 serial dilutions of 75 microlitres each.
75 microlitres of the yeast suspension were added to each well of the diluted chemical: GenT01 to one series and GenC01 to the second, and to appropriate standards and controls. After the plates were filled, they were sealed using either a gas permeable membrane (Breath-easy, Diversified Biotech, USA) or a plastic lid, and then incubated without shaking, overnight at 25° C.
Following overnight incubation, fluorescence and absorbance data were collected from the microplates. […] Absorbance was measured through a 620 nm filter in both instruments. […] Fluorescence data were divided by absorbance data to give ‘brightness units’, the measure of average GFP induction per cell. […] In this way, one can distinguish between a small number of highly fluorescent cells and a large number of weakly fluorescent cells. In order to correct for induced cellular autofluorescence and intrinsic compound fluorescence, the brightness values for the GenC01 strain were subtracted from those of GenT01. This makes visual assessment of the data more reliable.
The cytotoxicity threshold is set at 80% of the cell density reached by the untreated control cells.
Table 12 lists chemicals/solvents that are often used with test samples, to promote dissolution etc. […] If these chemicals are used to dissolve compound stock solutions, they should also be included in the diluent used to make the compound dilution series. […] Interference of DMSO, a free radical scavenger, in the recombinogenic properties of several oxidising agents has previously been reported.

[3] = test system: RNR3 regulatory element-GFP reporter; experiment: RNR3-GFP reporter microplate assay (pGenRNR3); format: cell-based, Saccharomyces cerevisiae; settings: yeast test strain transformed with pGenRNR3
Description: In addition to the RAD54 vectors described in the previous Examples, the inventors constructed an FF18984 reporter strain containing a replicative plasmid harbouring an RNR regulatory element. The vectors pGenRNR2 or pGenRNR3 are shown in FIGS. 24 and 25, respectively, and contain the upstream non-coding DNA sequence of the RNR2 gene or RNR3 gene fused to the yeast-enhanced Aequorea victoria GFP gene. A control FF18984 strain containing an identical plasmid except that 2 base pairs have been removed at the start of the GFP gene, such that no GFP is made, was also examined.
In order to test the brightness of the reporter for RNR3 constructs, similar methodology was used as for RAD54 constructs, as described in the previous Examples, but using instead pGENRNR3.

bacteria = settings: cited from earlier work
[4] = in vivo; cited from earlier work
SOS lux = settings: S9 −; cited from earlier work
SOS umuC = settings: cited from earlier work
[5] = other genotoxicity tests and cancer studies; cited from earlier work
[6] = requires S9 metabolic activation

## COc1cc2c(c(OC)c1OC)-c1ccc(OC)c(=O)cc1[C@@H](NC(C)=O)CC2 [colchicine]
[1]
  GSA genotoxicity result: responds

## CO [Methanol]
[2]
  Maximum Concentration (% v/v), suggested maximum tolerable solvent concentration: 2 % v/v

## Nc1ccc2cc3ccccc3cc2c1 [2-aminoanthracene]
[1]
  GSA genotoxicity result: negative

## CC(O)CCl (stereo not shown) [1-Chloro-2-propanol]
[2]
  Maximum Concentration (% v/v), suggested maximum tolerable solvent concentration: 2 % v/v

## CCO [Ethanol]
[2]
  Maximum Concentration (% v/v), suggested maximum tolerable solvent concentration: 2 % v/v

## Nc1ccc(Oc2ccc(N)cc2)cc1 [4,4-oxydianiline]
[1]
  GSA genotoxicity result: negative

## CNNC [1,2-dimethylhydrazine]
[3]
  fluorescence induction by the reporter: increases with increasing concentration
[1]
  GSA genotoxicity result: induced

## Cc1cc2nc3ccc(N(C)C)cc3nc2cc1N.Cl [Neutral Red]
[1]
  GSA genotoxicity result: positive
bacteria
  Ames test result: positive

## CN(C)CCN(Cc1cccs1)c1ccccn1 [methapyraline]
[1]
  GSA genotoxicity result: induced

## COc1cc([C@@H]2c3cc4c(cc3[C@@H](O[C@@H]3O[C@@H]5CO[C@@H](C)O[C@H]5[C@H](O)[C@H]3O)[C@H]3COC(=O)[C@H]23)OCO4)cc(OC)c1O [etoposide]
[1]
  GSA genotoxicity result: responds

## bleomycin
[1]
  GSA genotoxicity result: induced

## c1ccc2c(c1)cc1ccc3cccc4ccc2c1c34 [BENZO[A]PYRENE, benzo[a]pyrene]
[1]
  GSA genotoxicity result: positive

## CCn1cc(C(=O)O)c(=O)c2ccc(C)nc21 [NALIDIXIC ACID]
[1]; S9 −
  GSA (M), lowest effective concentration (LEC): 1.6e-06 M

## Nc1c2ccccc2nc2ccccc12 [9-aminoacridine]
[1]
  GSA genotoxicity result: negative

## NC(N)=S [thiourea]
bacteria
  Ames test result: not detectable
[4]
  cancer data / carcinogenicity: carcinogens

## OO [HYDROGEN PEROXIDE]
[1]; Saccharomyces cerevisiae
  GSA (M), lowest effective concentration (LEC): 0.002 M
SOS lux
  SOS LUX ASSAY (M), LEC: 5.9e-05 M

## Clc1ccc(COC(Cn2ccnc2)c2ccc(Cl)cc2Cl)cc1 (stereo not shown) [econazole]
[1]
  GSA genotoxicity result: responds

## N.N.[Cl][Pt][Cl] [CISPLATIN, cisplatin]
[1]; S9 −
  GSA (M), lowest effective concentration (LEC): 6.2e-05 M
SOS umuC; S9 −
  SOS UMUC ASSAY (M), LEC: 9e-07 M

## CC[n+]1c(-c2ccccc2)c2cc(N)ccc2c2ccc(N)cc21 [ethidium bromide]
bacteria; [6]
  Ames test result: positive

## C[S+](C)[O-] [Dimethylsulfoxide]
[2]
  Maximum Concentration (% v/v), suggested maximum tolerable solvent concentration: 5 % v/v

## CN/C(=N/CCSCc1nc[nH]c1C)NC#N [cimetidine]
[1]
  GSA genotoxicity result: positive
[5]
  corresponding data from other tests: no corresponding positive data

## C[n+]1ccc(-c2cc[n+](C)cc2)cc1 [methyl viologen]
[1]
  GSA genotoxicity result: induced

## CO[C@@]12[C@H](COC(N)=O)C3=C(C(=O)C(C)=C(N)C3=O)N1C[C@@H]1N[C@@H]12 [MITOMYCIN C, mitomycin C]
SOS umuC; S9 −
  SOS UMUC ASSAY (M), LEC: 1e-08 M
SOS lux
  SOS LUX ASSAY (M), LEC: 4.7e-08 M

## CCOC(N)=O [urethane]
bacteria
  Ames test result: not detectable
[4]
  cancer data / carcinogenicity: carcinogens

## proflavin hemisulfate
[1]
  GSA genotoxicity result: positive
bacteria; [6]
  Ames test result: positive

## Nc1ccccc1 [aniline]
[1]
  GSA genotoxicity result: negative
bacteria
  Ames test result: not detectable
bacteria; with and without S9
  Ames test result: negative
[4]
  cancer data / carcinogenicity: carcinogens

## Nc1cc([N+](=O)[O-])ccc1O [2-amino-4-nitrophenol]
[1]
  GSA genotoxicity result: positive
bacteria; [6]
  Ames test result: positive

## ClC(Cl)(Cl)Cl [Carbon tetrachloride]
[2]
  Maximum Concentration (% v/v), suggested maximum tolerable solvent concentration: 2 % v/v

## tritolyl phosphate
[5]
  corresponding data from other tests: no corresponding positive data

## CCCCC(CC)COC(=O)c1ccccc1C(=O)OCC(CC)CCCC (stereo not shown) [phthalic acid bis(2-ethylhexyl) ester]
[1]
  GSA genotoxicity result: induced

## C=CCc1ccc2c(c1)OCO2 [safrole]
bacteria
  Ames test result: not detectable
[4]
  cancer data / carcinogenicity: carcinogens

## [N-]=[N+]=[N-] [SODIUM AZIDE]
[1]; Saccharomyces cerevisiae
  GSA (M), lowest effective concentration (LEC): 1e-05 M
SOS umuC
  SOS UMUC ASSAY (M), LEC: 0.0054 M

## O=Cc1ccccc1 [Benzaldehyde]
[2]; GenT01 yeast, overnight at 25° C.
  GSA cytotoxicity result: cytotoxic

## Cc1c2ccncc2c(C)c2c1[nH]c1ccccc12 [ellipticine]
[1]
  GSA genotoxicity result: responds

## C1CCOC1 [Tetrahydrofuran]
[2]
  Maximum Concentration (% v/v), suggested maximum tolerable solvent concentration: 2 % v/v

## CC(=O)Nc1ccc2c(c1)Cc1ccccc1-2 [2-acetamidofluorene]
[1]
  GSA genotoxicity result: negative

## Nc1nc[nH]n1 [3-amino-1,2,4-triazole]
[1]
  GSA genotoxicity result: positive
[4]
  cancer data / carcinogenicity: positive

## CCOS(C)(=O)=O [EMS, Ethyl methanesulfonate]
[3]
  fluorescence induction by the reporter: increases with increasing concentration

## phleomycin
[1]
  GSA genotoxicity result: induced

Reference: patent US20080064053A1, “Genotoxicity Testing” (priority 2003, published 2008)
